Test results: US8653036B2, “Methods of treating retinitis pigmentosa” (Mimetogen Pharmaceuticals Inc., priority 2009, dated 2014)

Assays:
APRE19 cells [1] = assay: Protection of retinal pigmented epithelial cells from oxidative-stress-induced apoptosis (TNFα and H2O2), nuclei stained with Hoechst reagent; format: cell-based; conditions: stressed APRE19 cells, TNFα and H2O2, sixteen hours
Experimental: Neurotrophic Protection of Retinal Pigmented Epithelial Cells from Degeneration Due to Oxidative Stress
The purpose of this study was to investigate the pharmacological concept of neurotrophic prevention of oxidative-stress-induced degeneration of retinal pigmented epithelial (RPE) cells. The aim of this study was to validate specific compounds as therapy for retinitis pigmentosa.
APRE19 cells were cultured in complete media, followed by eight hours of serum starvation. Then apoptosis was induced by exposure to oxidative stress (TNFα and H2O2), in the presence or absence of test compounds or controls for sixteen hours. Apoptosis was quantified as the percentage of dead cells over total live+dead cells by counting nuclei stained with Hoechst reagent.
Test agents included nerve growth factor (an agonist of TrkA and p75 receptors), Neurotrophin-3 (an agonist of TrkC and p75 receptors), and compounds D3, 3Ak, 3Ae and 3Aa.

[2] = test system: mouse model of retinal degeneration; assay: Mouse model of retinal degeneration: ERG (scotopic and photopic) and number of Outer Nuclear Layer rows; format: in vivo; conditions: drug treated versus control treated animals
Experimental: Additional experiments in a mouse model of retinal degeneration were conducted.

APRE19 cells [3] = conditions: cited from earlier work

## CC[C@H](C)[C@@H]1NC(=O)c2cc(N)ccc2OCc2ccc(C(N)=O)cc2NC(=O)[C@H](CCCCN)NC1=O [Compound 3Aa]
APRE19 cells [1]
  protection of apoptosis (in words): protection is not dose dependent and is less than that seen with compounds D3, 3Ak and 3Ae
[2]
  drug effect on ERG (scotopic and photopic) and number of Outer Nuclear Layer rows versus control: did not show a drug effect that was statistically significant from control

## CC[C@H](C)[C@@H]1NC(=O)c2cc(N)ccc2OCc2ccc(C(N)=O)cc2NC(=O)[C@H](CCCNC(=N)N)NC1=O [Compound 3Ae]
APRE19 cells [1]
  protection of apoptosis (in words): quantitative and significant protection of apoptosis, in a dose dependent manner

## N=C(N)NCCC[C@@H]1NC(=O)c2cc(N)ccc2OCc2ccc(C(N)=O)cc2NC(=O)CNC1=O [Compound 3Ak]
APRE19 cells [1]
  protection of apoptosis (in words): quantitative and significant protection of apoptosis, in a dose dependent manner

## NCCCC[C@@H]1NC(=O)[C@H](CCC(=O)O)NC(=O)c2cc([N+](=O)[O-])ccc2OCCC(C(=O)NCC(=O)O)NC1=O (stereo partly shown) [Compound D3]
APRE19 cells [1]
  protection of apoptosis (in words): quantitative and significant protection of apoptosis, in a dose dependent manner

## NGF: nerve growth factor (an agonist of TrkA and p75 receptors)
APRE19 cells [3]
  protection of stressed APRE19 cells by neurotrophins (published): Protection of stressed APRE19 cells

B1: NT-3: Neurotrophin-3 (an agonist of TrkC and p75 receptors) (protein, UniProt P20783 139-257, looked up)
Neurotrophin-3: YAEHKSHRGEYSVCDSESLWVTDKSSAIDIRGHQVTVLGEIKTGNSPVKQYFYETRCKEARPVKNGCRGIDDKHWNSQCKTSQTYVRALTSENNKLVGWRWIRIDTSCVCALSRKIGRT
APRE19 cells [3]
  protection of stressed APRE19 cells by neurotrophins (published): Protection of stressed APRE19 cells
